Reference: the NIST ThermoML archive (doi:10.1021/je050170x)

Key:
[1] = for surface tension liquid-gas: Wilhelmy-plate method; for mass density / viscosity: 101.33 kPa, Liquid; for viscosity: Capillary tube (Ostwald / Ubbelohde) method
[2] = refractive index (Na D-line) (dimensionless); conditions: 101.33 kPa, Liquid, Standard Abbe refractometry

CCCC(=O)OCCC(C)C [3-methylbutyl butanoate]
Conditions | mass density, [1] [kg/m3] | refractive index, [2] | surface tension liquid-gas, [1] [mN/m] | viscosity, [1] [mPa·s]
288.15 K | 867.72 | 1.41259 | 25.7 | 1.317
298.15 K | 858.69 | 1.40815 | 24.7 | 1.111
308.15 K | 849.62 | 1.40374 | 24 | 0.952
318.15 K | 840.55 | 1.39927 | 23.1 | 0.827
328.15 K | 831.47 | 1.39506 | 22.4 | 0.724
338.15 K | 822.35 | 1.39055 | 21.6 | 0.641
348.15 K | 813.19 | 1.386 | 20.5 | 0.573
358.15 K | 803.96 | 1.38139 | 19.7 | 0.511

CC(=O)OCCC(C)C [3-methylbutyl ethanoate]
Conditions | mass density, [1] [kg/m3] | refractive index, [2] | surface tension liquid-gas, [1] [mN/m] | viscosity, [1] [mPa·s]
288.15 K | 877.72 | 1.40288 | 25.4 | 0.94
298.15 K | 867.91 | 1.39836 | 24.3 | 0.804
308.15 K | 858.07 | 1.39365 | 23.4 | 0.704
318.15 K | 848.17 | 1.38895 | 22.4 | 0.627
328.15 K | 838.22 | 1.38447 | 21.6 | 0.559
338.15 K | 828.19 | 1.37971 | 20.6 | 0.484
348.15 K | 818.07 | 1.37487 | 19.6 | 0.434
358.15 K | 807.85 | 1.36995 | 18.7 | 0.39

CC(=O)OCc1ccccc1 [benzyl ethanoate]
Conditions | mass density, [1] [kg/m3] | refractive index, [2] | surface tension liquid-gas, [1] [mN/m] | viscosity, [1] [mPa·s]
288.15 K | 1060.11 | 1.50439 | 37.7 | 2.53
298.15 K | 1050.75 | 1.49982 | 36.4 | 2.056
308.15 K | 1041.39 | 1.49539 | 35.3 | 1.703
318.15 K | 1032.03 | 1.49064 | 34.1 | 1.432
328.15 K | 1022.67 | 1.48623 | 33.2 | 1.229
338.15 K | 1013.29 | 1.48157 | 32.2 | 1.059
348.15 K | 1003.89 | 1.47701 | 31.1 | 0.941
358.15 K | 994.45 | 1.47233 | 30.1 | 0.826

CCC(=O)OCc1ccccc1 [benzyl propanoate]
Conditions | mass density, [1] [kg/m3] | refractive index, [2] | surface tension liquid-gas, [1] [mN/m] | viscosity, [1] [mPa·s]
288.15 K | 1036.86 | 1.4995 | 36 | 2.55
298.15 K | 1027.6 | 1.49498 | 34.8 | 2.123
308.15 K | 1018.38 | 1.49074 | 33.6 | 1.787
318.15 K | 1009.15 | 1.48611 | 32.4 | 1.515
328.15 K | 999.93 | 1.48171 | 31.6 | 1.294
338.15 K | 990.72 | 1.47711 | 30.5 | 1.114
348.15 K | 981.49 | 1.47252 | 29.5 | 0.964
358.15 K | 972.25 | 1.46768 | 28.5 | 0.84

CCOC(=O)c1ccccc1O [ethyl 2-hydroxybenzoate]
Conditions | mass density, [1] [kg/m3] | refractive index, [2] | surface tension liquid-gas, [1] [mN/m] | viscosity, [1] [mPa·s]
288.15 K | 1134.72 | 1.52481 | 37.5 | 3.694
298.15 K | 1125 | 1.52022 | 36.3 | 2.831
308.15 K | 1115.29 | 1.51573 | 35.2 | 2.253
318.15 K | 1105.6 | 1.51116 | 34.4 | 1.842
328.15 K | 1095.94 | 1.50646 | 33.4 | 1.53
338.15 K | 1086.24 | 1.50191 | 32 | 1.305
348.15 K | 1076.6 | 1.49744 | 31 | 1.126
358.15 K | 1066.83 | 1.49296 | 30.2 | 0.984

CCOC(=O)CC(C)C [ethyl 3-methylbutanoate]
Conditions | mass density, [1] [kg/m3] | refractive index, [2] | surface tension liquid-gas, [1] [mN/m] | viscosity, [1] [mPa·s]
288.15 K | 869.66 | 1.3988 | 24.4 | 0.853
298.15 K | 859.78 | 1.39401 | 23.5 | 0.739
308.15 K | 849.83 | 1.38931 | 22.5 | 0.642
318.15 K | 839.81 | 1.38458 | 21.6 | 0.566
328.15 K | 829.71 | 1.37978 | 20.7 | 0.504
338.15 K | 819.52 | 1.37492 | 19.6 | 0.452
348.15 K | 809.2 | 1.37002 | 18.7 | 0.408
358.15 K | 798.73 | 1.36524 | 17.6 | 0.367

CCOC(=O)CC(C)=O [ethyl 3-oxobutanoate]
Conditions | mass density, [1] [kg/m3] | refractive index, [2] | surface tension liquid-gas, [1] [mN/m] | viscosity, [1] [mPa·s]
288.15 K | 1033.92 | 1.42091 | 33.3 | 1.902
298.15 K | 1023.45 | 1.41658 | 32.3 | 1.581
308.15 K | – | 1.41246 | 31.1 | 1.344
318.15 K | – | 1.40803 | 30 | 1.144
328.15 K | 992.26 | 1.40386 | 29.1 | 0.981
338.15 K | 981.58 | 1.39949 | 28.2 | 0.847
348.15 K | 971.05 | 1.3951 | 27 | 0.736
358.15 K | 960.46 | 1.39061 | 26.1 | 0.644

CCOC(=O)c1ccccc1 [ethyl benzoate]
Conditions | mass density, [1] [kg/m3] | refractive index, [2] | surface tension liquid-gas, [1] [mN/m] | viscosity, [1] [mPa·s]
288.15 K | 1050.78 | 1.5076 | 35.7 | 2.444
298.15 K | 1041.42 | 1.50328 | 34.6 | 1.971
308.15 K | 1032.07 | 1.49863 | 33.3 | 1.623
318.15 K | 1022.73 | 1.49391 | 32.5 | 1.368
328.15 K | 1013.4 | 1.48946 | 31.5 | 1.169
338.15 K | 1004.06 | 1.4847 | 30.2 | 1.016
348.15 K | 994.7 | 1.48004 | 29.3 | 0.89
358.15 K | 985.31 | 1.47526 | 28.4 | 0.784

CCCCCC(=O)OCC [ethyl hexanoate]
Conditions | mass density, [1] [kg/m3] | refractive index, [2] | surface tension liquid-gas, [1] [mN/m] | viscosity, [1] [mPa·s]
288.15 K | 875.64 | 1.4095 | 26.4 | 1.102
298.15 K | 866.29 | 1.40504 | 25.4 | 0.94
308.15 K | 856.91 | 1.40055 | 24.5 | 0.814
318.15 K | 847.5 | 1.39597 | 23.6 | 0.711
328.15 K | 838.05 | 1.39164 | 22.7 | 0.63
338.15 K | 828.55 | 1.38705 | 21.8 | 0.562
348.15 K | 818.99 | 1.38239 | 21 | 0.504
358.15 K | 809.34 | 1.37768 | 20 | 0.452

CCCCCCCC(=O)OCC [ethyl octanoate]
Conditions | mass density, [1] [kg/m3] | refractive index, [2] | surface tension liquid-gas, [1] [mN/m] | viscosity, [1] [mPa·s]
288.15 K | 870.79 | 1.41991 | 27.2 | 1.697
298.15 K | 862.15 | 1.4156 | 26.4 | 1.411
308.15 K | 853.52 | 1.41137 | 25.5 | 1.193
318.15 K | 844.87 | 1.40702 | 24.7 | 1.027
328.15 K | 836.21 | 1.40294 | 23.8 | 0.892
338.15 K | 827.53 | 1.39857 | 22.8 | 0.784
348.15 K | 818.58 | 1.39418 | 22 | 0.694
358.15 K | 810.05 | 1.38974 | 21.4 | 0.617

CCOC(=O)Cc1ccccc1 [ethyl phenylacetate]
Conditions | mass density, [1] [kg/m3] | refractive index, [2] | surface tension liquid-gas, [1] [mN/m] | viscosity, [1] [mPa·s]
288.15 K | 1036.35 | 1.49971 | 35.9 | 3.002
298.15 K | 1026.96 | 1.49513 | 34.6 | 2.384
308.15 K | 1017.6 | 1.49063 | 33.5 | 1.948
318.15 K | 1008.26 | 1.48583 | 32.8 | 1.624
328.15 K | 998.93 | 1.48149 | 31.6 | 1.383
338.15 K | 989.61 | 1.47688 | 30.6 | 1.191
348.15 K | 980.28 | 1.47224 | 29.4 | 1.037
358.15 K | 970.95 | 1.46747 | 28.6 | 0.908

COC(=O)c1ccccc1 [methyl benzoate]
Conditions | mass density, [1] [kg/m3] | refractive index, [2] | surface tension liquid-gas, [1] [mN/m] | viscosity, [1] [mPa·s]
288.15 K | 1093.23 | 1.51915 | 38.6 | 2.297
298.15 K | 1083.92 | 1.51467 | 37.2 | 1.851
308.15 K | 1074.34 | 1.50993 | 35.8 | 1.531
318.15 K | 1064.62 | 1.50514 | 34.8 | 1.297
328.15 K | 1054.82 | 1.50058 | 33.7 | 1.108
338.15 K | 1044.99 | 1.49584 | 32.5 | 0.97
348.15 K | 1035.23 | 1.49107 | 31.3 | 0.852
358.15 K | 1025.6 | 1.48624 | 30.4 | 0.75
